Values joined by “and” are separate entries in the source; they are usually repeats but may differ in a detail not shown here. Identical values can stand only once.
How the values were obtained:
[1] = n-octanol/phosphate buffer partition coefficient; format: physicochemical; conditions: n-octanol / 0.1 M phosphate buffer pH 7.4; read-out: n-octanol/phosphate buffer partition coefficient (log P)
Protocol: The n-octanol/phosphate buffer partition coefficients of [^77Br]2 were 2.36 ± 0.06 which were lower than [^77Br]3 (3.02 ± 0.04). These values are lower than radioiodinated compounds, [^125I]4 and [^125I]5 at 2.71 ± 0.03 and 3.19 ± 0.17, respectively.
Partition coefficients of [^77Br]2 and [^77Br]3 into n-octanol and 0.1 M phosphate buffer (PB) pH 7.4 were determined using the method described previously. The measurement was performed in quadruplicate. The partition coefficient was determined by calculating the ratio of cpm/mL of n-octanol to that of buffer and expressed as log P. Radioactivity of each layer were counted by a gamma counter.

[2] = Biodistribution in ddY mice; format: in vivo; conditions: i.v. co-injection
Protocol: In this study, to minimize both the number of mice consumed in the experiment and the potential for experimental errors, we co-injected radiobrominated and radioiodinated compounds into mice[30],[31]. High radioactivity in the liver, small intestine, and large intestine was observed.
(§1) Mice were intravenously injected via the tail with 100 µL of saline solution of [^77Br]2 and [^125I]4 or [^77Br]3 and [^125I]5 (74 kBq, respectively), containing 10% ethanol and 1% tween-80. The ddY mice were sacrificed at 10 min, 1, 4, and 24 h postinjection. Meanwhile, tumor-bearing mice were sacrificed at 1 h postinjection.
(§2) Tissues in mice were resected and weighed. The radioactivity of the tissues was counted by a gamma counter and counts were corrected for background radiation. The data were expressed as percent injection dose per gram tissue (%ID/g).

[3] = In vitro stability in 0.1 M PBS (pH 7.4); format: physicochemical; conditions: 24 h incubation at 37 °C, purity by TLC
Protocol: The stability of [^77Br]2 and [^77Br]3 in 0.1 M phosphate-buffered saline (PBS) (pH 7.4) was high (93.6 ± 0.9% and 93.0 ± 0.6%, respectively). There was no significant decomposition after 24 h incubation at 37 °C for either radiotracer.
The stability of radiolabeled compounds, [^77Br]2 and [^77Br]3, were analyzed as described previously. The purities radiolabeled compounds were determined by TLC using chloroform/methanol = 5/1 and 20/1 as a developing solvent for [^77Br]2 and [^77Br]3, respectively. The results were confirmed by RP-HPLC.

[4] = test system: BxPC3-luc tumor; experiment: Biodistribution in BxPC3-luc tumor-bearing mice; format: in vivo, BALB/c nu/nu mice
Protocol: We investigated the biodistribution of the radiotracers in BxPC3-luc tumor-bearing mice by co-injecting [^77Br]2 with [^125I]4 (Table 3), and [^77Br]3 with [^125I]5 (Table 4).
Animal experiments were conducted in strict accordance with the Guidelines for the Care and Use of Laboratory Animals of Kanazawa University. The animal experimental protocols used were approved by the Committee on Animal Experimentation of Kanazawa University (Permit Number: AP-163766). The animals were housed with free access to food and water at approximately 23 °C with a 12 h light/dark schedule. ddY mice (six-week-old, male, 27–30 g) and BALB/c nu/nu mice (four-week-old, female, 12–17 g) were purchased from Japan SLC Inc. (Hamamatsu, Japan). For preparing the tumor-bearing mice, BxPC3-luc cells (5 × 10^6 cells) were subcutaneously injected into the left shoulder of BALB/c nu/nu mice. The tumor reached palpable size after two weeks of the inoculation.
as §1, §2

logP [1]: 2.36 ± 0.06
Radioactivity in Blood ([2]; 10 min): 0.99 (0.03) %injected dose/gram tissue
Radioactivity in Bone ([2]; 10 min): 2.81 (1.06) %injected dose/gram tissue
Radioactivity in Brain ([2]; 10 min): 0.12 (0.01) %injected dose/gram tissue
Radioactivity in Heart ([2]; 10 min): 4.41 (0.27) %injected dose/gram tissue
Radioactivity in Kidney ([2]; 10 min): 15.61 (1.32) %injected dose/gram tissue
Radioactivity in Large intestine ([2]; 10 min): 0.99 (0.10) %injected dose/gram tissue
Radioactivity in Liver ([2]; 10 min): 12.49 (0.64) %injected dose/gram tissue
Radioactivity in Lung ([2]; 10 min): 10.92 (0.55) %injected dose/gram tissue
Radioactivity in Muscle ([2]; 10 min): 2.24 (0.18) %injected dose/gram tissue
Radioactivity in Pancreas ([2]; 10 min): 4.18 (0.38) %injected dose/gram tissue
Radioactivity in Small intestine ([2]; 10 min): 8.58 (2.18) %injected dose/gram tissue
Radioactivity in Spleen ([2]; 10 min): 5.39 (0.40) %injected dose/gram tissue
Radioactivity in Stomach ([2]; 10 min): 1.74 (0.15) %injected dose /organ
Radioactivity in Blood ([2]; 1 h): 0.28 (0.06) %injected dose/gram tissue
Radioactivity in Bone ([2]; 1 h): 1.15 (0.15) %injected dose/gram tissue
Radioactivity in Brain ([2]; 1 h): 0.10 (0.01) %injected dose/gram tissue
Radioactivity in Heart ([2]; 1 h): 1.15 (0.17) %injected dose/gram tissue
Radioactivity in Kidney ([2]; 1 h): 10.12 (3.49) %injected dose/gram tissue
Radioactivity in Large intestine ([2]; 1 h): 2.69 (0.65) %injected dose/gram tissue
Radioactivity in Liver ([2]; 1 h): 4.26 (1.37) %injected dose/gram tissue
Radioactivity in Lung ([2]; 1 h): 4.32 (0.84) %injected dose/gram tissue
Radioactivity in Muscle ([2]; 1 h): 0.92 (0.04) %injected dose/gram tissue
Radioactivity in Pancreas ([2]; 1 h): 2.98 (0.75) %injected dose/gram tissue
Radioactivity in Small intestine ([2]; 1 h): 29.51 (7.92) %injected dose/gram tissue
Radioactivity in Spleen ([2]; 1 h): 1.59 (0.28) %injected dose/gram tissue
Radioactivity in Stomach ([2]; 1 h): 1.62 (0.55) %injected dose /organ
Radioactivity in Blood ([2]; 4 h): 0.20 (0.03) %injected dose/gram tissue
Radioactivity in Bone ([2]; 4 h): 1.50 (1.27) %injected dose/gram tissue
Radioactivity in Brain ([2]; 4 h): 0.09 (0.00) %injected dose/gram tissue
Radioactivity in Heart ([2]; 4 h): 0.58 (0.13) %injected dose/gram tissue
Radioactivity in Kidney ([2]; 4 h): 4.33 (0.75) %injected dose/gram tissue
Radioactivity in Large intestine ([2]; 4 h): 53.70 (8.89) %injected dose/gram tissue
Radioactivity in Liver ([2]; 4 h): 3.44 (0.98) %injected dose/gram tissue
Radioactivity in Lung ([2]; 4 h): 2.71 (1.06) %injected dose/gram tissue
Radioactivity in Muscle ([2]; 4 h): 0.44 (0.07) %injected dose/gram tissue
Radioactivity in Pancreas ([2]; 4 h): 1.63 (0.19) %injected dose/gram tissue
Radioactivity in Small intestine ([2]; 4 h): 4.76 (0.89) %injected dose/gram tissue
Radioactivity in Spleen ([2]; 4 h): 0.69 (0.24) %injected dose/gram tissue
Radioactivity in Stomach ([2]; 4 h): 0.81 (0.21) %injected dose /organ
Radioactivity in Blood ([2]; 24 h): 0.12 (0.02) %injected dose/gram tissue
Radioactivity in Bone ([2]; 24 h): 0.55 (0.10) %injected dose/gram tissue
Radioactivity in Brain ([2]; 24 h): 0.07 (0.00) %injected dose/gram tissue
Radioactivity in Heart ([2]; 24 h): 0.29 (0.03) %injected dose/gram tissue
Radioactivity in Kidney ([2]; 24 h): 0.21 (0.05) %injected dose/gram tissue
Radioactivity in Large intestine ([2]; 24 h): 0.18 (0.03) %injected dose/gram tissue
Radioactivity in Liver ([2]; 24 h): 0.29 (0.08) %injected dose/gram tissue
Radioactivity in Lung ([2]; 24 h): 0.29 (0.05) %injected dose/gram tissue
Radioactivity in Muscle ([2]; 24 h): 0.22 (0.02) %injected dose/gram tissue
Radioactivity in Pancreas ([2]; 24 h): 0.41 (0.34) %injected dose/gram tissue
Radioactivity in Small intestine ([2]; 24 h): 0.07 (0.01) %injected dose/gram tissue
Radioactivity in Spleen ([2]; 24 h): 0.66 (0.77) %injected dose/gram tissue
Radioactivity in Stomach ([2]; 24 h): 0.11 (0.01) %injected dose /organ
Stability in 0.1 M PBS (pH 7.4) [3]: 93.6 ± 0.9%
Tumor-to-blood ratio of radioactivity ([4]; 1 h postinjection): 2.8
Radioactivity in Stomach ([4]; i.v. co-injection, 1 h): 0.96 (0.20) %injected dose /organ
SMILES: COCCOc1ccc2c(c1)ncn2-c1ccc2c([77Br])ccc(N3CCC(N)CC3)c2n1 [[^77Br]2, [^77Br]1-{5-Bromo-2-[5-(2-methoxyethoxy)-1H-benzo[d]imidazol-1-yl]quinoline-8-yl}piperidin-4-amine]
Radioactivity in Blood ([4]; i.v. co-injection, 1 h): 0.58 (0.10) %injected dose/gram of tissue
Radioactivity in Bone ([4]; i.v. co-injection, 1 h): 1.15 (0.09) %injected dose/gram of tissue
Radioactivity in Brain ([4]; i.v. co-injection, 1 h): 0.14 (0.03) %injected dose/gram of tissue
Radioactivity in BxPC3-luc tumor ([4]; i.v. co-injection, 1 h): 1.61 %injected dose/gram of tissue and 1.61 ± 0.24 %injected dose/gram of tissue and 1.61 (0.24) %injected dose/gram of tissue
Radioactivity in Heart ([4]; i.v. co-injection, 1 h): 1.88 (0.33) %injected dose/gram of tissue
Radioactivity in Kidney ([4]; i.v. co-injection, 1 h): 17.39 (4.03) %injected dose/gram of tissue
Radioactivity in Large intestine ([4]; i.v. co-injection, 1 h): 3.22 (0.40) %injected dose/gram of tissue
Radioactivity in Liver ([4]; i.v. co-injection, 1 h): 11.07 (1.04) %injected dose/gram of tissue
Radioactivity in Lung ([4]; i.v. co-injection, 1 h): 10.31 (1.91) %injected dose/gram of tissue
Radioactivity in Muscle ([4]; i.v. co-injection, 1 h): 0.94 (0.08) %injected dose/gram of tissue
Radioactivity in Pancreas ([4]; i.v. co-injection, 1 h): 6.61 (1.00) %injected dose/gram of tissue
Radioactivity in Small intestine ([4]; i.v. co-injection, 1 h): 51.52 (9.93) %injected dose/gram of tissue
Radioactivity in Spleen ([4]; i.v. co-injection, 1 h): 2.94 (0.54) %injected dose/gram of tissue

From article PMC6039436, “Radiobrominated benzimidazole-quinoline derivatives as Platelet-derived growth factor receptor beta (PDGFRβ) imaging probes” (Scientific Reports, 2018)
